Assay results: ChEMBL document CHEMBL1158801, “Acylphloroglucinol derivatives from Mahurea palustris” (J Nat Prod, 2005)
The source made the active and inactive calls. The calls are words filed in the database; no cut-off is given here.

Tests used:
DNA polymerase beta = DNA polymerase beta (Homo sapiens, UniProt P06746); experiment: Inhibition of human recombinant DNA polymerase beta assessed as fluorescein-12-dCTP incorporation by fluorimetry
[1] = test system: Human immunodeficiency virus; experiment: Inhibition of HIV reverse transcriptase at 50 uM

Structure (SMILES)	Activity (DNA polymerase beta)	IC50 (DNA polymerase beta)	fold change (FC) [1]
CCC(C)C(=O)C1=C(O)OC2=C(C(CC(=O)O)c3ccccc3)C(C)(C)C(CCC(C)(C)OC(=O)C(F)(F)F)CC2(CC=C(C)C)C1=O (stereo not given)	inactive	–	–
CCCC(CC(=O)O)C1=C2OC(O)=C(C(=O)CC(C)C)C(=O)C2(CC=C(C)C)CC(CC=C(C)C)C1(C)C (stereo not given) [MAHUREONE D]	–	12 µM	–
CCCC(CC(=O)O)C1=C2OC(O)=C(C(=O)C(C)CC)C(=O)C2(CC=C(C)C)CC(CC=C(C)C)C1(C)C (stereo not given) [MAHUREONE E]	–	342 µM	–
Nc1ccn([C@H]2CC[C@@H](COP(=O)(O)OP(=O)(O)OP(=O)(O)O)O2)c(=O)n1 [ddCTP SODIUM]	–	1.3 µM	–

Results, then the compound that gave them:

Activity (DNA polymerase beta)	IC50 (DNA polymerase beta)	fold change (FC) [1]	Structure (SMILES)
inactive	–	–	CC(C)=CCC1CC2(CC=C(C)C)C(=O)C(C(=O)C(C)C)=C(O)OC2=C(C(CC(=O)O)c2ccccc2)C1(C)C (stereo not given)
inactive	–	–	CCC(C)C(=O)C1=C(O)OC2=C(C(CC(=O)O)c3ccccc3)C(C)(C)C(CCC(C)(C)NC(C)=O)CC2(CC=C(C)C)C1=O (stereo not given)
inactive	–	–	CCC(C)C(=O)C1=C(O)OC2=C(C(CC(=O)O)c3ccccc3)C(C)(C)C(CCC(C)(C)O)CC2(CC=C(C)C)C1=O (stereo not given)
–	28 µM	2	CC(C)=CCC1CC2(CC=C(C)C)C(=O)C(C(=O)CC(C)C)=C(O)OC2=C(C(CC(=O)O)c2ccccc2)C1(C)C (stereo not given) [MAHUREONE A]
–	73 µM	–	CCC(C)C(=O)C1=C(O)OC2=C(C(CC(=O)O)c3ccccc3)C(C)(C)C(CC=C(C)C)CC2(CC=C(C)C)C1=O (stereo not given) [MAHUREONE B]
